From PubChem BioAssay AID1963874 (Molecular Pharmacology Branch, DTP, NCI, 2024)

Tested on: 253994-281-T-J1-PDC KRAS-mutant spheroids with HUVEC/MSC, viability
Test: Anticancer human tumor 253994-281-T-J1-PDC patient-derived colorectal carcinoma cell line growth inhibition [KRAS2]
Conditions: for viability, T/C: stronger effect = lower value
Outline: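 KRAS-mutant tumor cells were grown as spheroids with HUVEC endothelial cells and human MSCs as stroma. Targeted agents were tested alone and with KRAS pathway inhibitors. Doses started at or near clinical Cmax, or 10 microM, descending half-log.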

[1] = curve of first compound, second compound 0.0316 µM
[2] = curve of first compound, second compound 0.1 µM
[3] = curve of first compound, second compound 0.316 µM
[4] = curve of first compound, second compound 1 µM
[5] = curve of first compound, second compound 3.16 µM
[6] = second compound 0.0316 µM, first compound 0.0316 µM
[7] = second compound 0.0316 µM, first compound 0.1 µM
[8] = second compound 0.0316 µM, first compound 0.316 µM
[9] = second compound 0.0316 µM, first compound 1 µM
[10] = second compound 0.0316 µM, first compound 3.16 µM
[11] = second compound 0.0316 µM, first compound 10 µM
[12] = second compound 0.1 µM, first compound 0.0316 µM
[13] = second compound 0.1 µM, first compound 0.1 µM
[14] = second compound 0.1 µM, first compound 0.316 µM
[15] = second compound 0.1 µM, first compound 1 µM
[16] = second compound 0.1 µM, first compound 3.16 µM
[17] = second compound 0.1 µM, first compound 10 µM
[18] = second compound 0.316 µM, first compound 0.0316 µM
[19] = second compound 0.316 µM, first compound 0.1 µM
[20] = second compound 0.316 µM, first compound 0.316 µM
[21] = second compound 0.316 µM, first compound 1 µM
[22] = second compound 0.316 µM, first compound 3.16 µM
[23] = second compound 0.316 µM, first compound 10 µM
[24] = second compound 1 µM, first compound 0.0316 µM
[25] = second compound 1 µM, first compound 0.1 µM
[26] = second compound 1 µM, first compound 0.316 µM
[27] = second compound 1 µM, first compound 1 µM
[28] = second compound 1 µM, first compound 3.16 µM
[29] = second compound 1 µM, first compound 10 µM
[30] = second compound 3.16 µM, first compound 0.0316 µM
[31] = second compound 3.16 µM, first compound 0.1 µM
[32] = second compound 3.16 µM, first compound 0.316 µM
[33] = second compound 3.16 µM, first compound 1 µM
[34] = second compound 3.16 µM, first compound 3.16 µM
[35] = second compound 3.16 µM, first compound 10 µM
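Further: spheroids exposed to agents for seven days before readout.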
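Wherever viability, T/C is given: percent of DMSO vehicle control viability.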

**Q.** `O=C(c1cc(Cc2n[nH]c(=O)c3ccccc23)ccc1F)N1CCN(C(=O)C2CC2)CC1` + C=CC(=O)N1CCN(c2nc(OCC3CCCN3C)nc3c2CCN(c2cccc4cccc(C)c24)C3)CC1CC#N was tested. Which IC50 [1] did it give?
**A.** Its IC50 is > 10 µM.

**Q.** And the IC50 [2]?
**A.** Its IC50 is > 10 µM.

**Q.** What about the IC50 [3] of the same molecule?
**A.** Its IC50 is > 10 µM.

**Q.** What about the IC50 [4] of the same molecule?
**A.** The IC50 was > 10 µM.

**Q.** What about the IC50 [5] of the same molecule?
**A.** The IC50 was < 0.0316 µM.

**Q.** And the viability, T/C [6]?
**A.** The viability, T/C was 108%.

**Q.** And the viability, T/C [7]?
**A.** The viability, T/C was 100%.

**Q.** And the viability, T/C [8]?
**A.** Its viability, T/C is 95.8%.

**Q.** What about the viability, T/C [9] of the same molecule?
**A.** Its viability, T/C is 90.5%.

**Q.** And the viability, T/C [10]?
**A.** Its viability, T/C is 90.5%.

**Q.** And the viability, T/C [11]?
**A.** Its viability, T/C is 82.8%.

**Q.** And the viability, T/C [12]?
**A.** Its viability, T/C is 83.1%.

**Q.** What about the viability, T/C [13] of the same molecule?
**A.** Its viability, T/C is 101%.

**Q.** What about the viability, T/C [14] of the same molecule?
**A.** The viability, T/C was 94.1%.

**Q.** What about the viability, T/C [15] of the same molecule?
**A.** Its viability, T/C is 87.1%.

**Q.** What about the viability, T/C [16] of the same molecule?
**A.** Its viability, T/C is 82.1%.

**Q.** What about the viability, T/C [17] of the same molecule?
**A.** The viability, T/C was 85.2%.

**Q.** What about the viability, T/C [18] of the same molecule?
**A.** Its viability, T/C is 80.3%.

**Q.** And the viability, T/C [19]?
**A.** Its viability, T/C is 81%.

**Q.** And the viability, T/C [20]?
**A.** Its viability, T/C is 83.8%.

**Q.** What about the viability, T/C [21] of the same molecule?
**A.** Its viability, T/C is 73%.

**Q.** What about the viability, T/C [22] of the same molecule?
**A.** Its viability, T/C is 79.6%.

**Q.** What about the viability, T/C [23] of the same molecule?
**A.** Its viability, T/C is 89.6%.

**Q.** And the viability, T/C [24]?
**A.** The viability, T/C was 87.4%.

**Q.** And the viability, T/C [25]?
**A.** Its viability, T/C is 113%.

**Q.** And the viability, T/C [26]?
**A.** Its viability, T/C is 88.2%.

**Q.** What about the viability, T/C [27] of the same molecule?
**A.** The viability, T/C was 90.7%.

**Q.** And the viability, T/C [28]?
**A.** The viability, T/C was 81.4%.

**Q.** What about the viability, T/C [29] of the same molecule?
**A.** Its viability, T/C is 80.8%.

**Q.** What about the viability, T/C [30] of the same molecule?
**A.** The viability, T/C was 32.7%.

**Q.** And the viability, T/C [31]?
**A.** The viability, T/C was 13%.

**Q.** And the viability, T/C [32]?
**A.** The viability, T/C was 15.7%.

**Q.** And the viability, T/C [33]?
**A.** Its viability, T/C is 24.1%.

**Q.** What about the viability, T/C [34] of the same molecule?
**A.** Its viability, T/C is 21%.

**Q.** What about the viability, T/C [35] of the same molecule?
**A.** Its viability, T/C is 21.1%.

**Q.** What does the source list for `COc1cc(Nc2ncc3c(n2)-c2ccc(Cl)cc2C(c2c(F)cccc2OC)=NC3)ccc1C(=O)O` + C=CC(=O)N1CCN(c2nc(OCC3CCCN3C)nc3c2CCN(c2cccc4cccc(C)c24)C3)CC1CC#N?
**A.** IC50 [1]: 0.0898 µM; IC50 [2]: > 10 µM; IC50 [3]: < 0.0316 µM; IC50 [4]: > 10 µM; IC50 [5]: < 0.0316 µM; viability, T/C [6]: 74.5%; viability, T/C [7]: 42.8%; viability, T/C [8]: 39%; viability, T/C [9]: 48.5%; viability, T/C [10]: 50%; viability, T/C [11]: 57%; viability, T/C [12]: 76.6%; viability, T/C [13]: 36.6%; viability, T/C [14]: 38.9%; viability, T/C [15]: 40.7%; viability, T/C [16]: 54.2%; viability, T/C [17]: 64.4%; viability, T/C [18]: 60.9%; viability, T/C [19]: 35.9%; viability, T/C [20]: 32.6%; viability, T/C [21]: 45.9%; viability, T/C [22]: 50.4%; viability, T/C [23]: 55.1%; viability, T/C [24]: 70.1%; viability, T/C [25]: 39.5%; viability, T/C [26]: 36%; viability, T/C [27]: 40.3%; viability, T/C [28]: 60.6%; viability, T/C [29]: 58.4%; viability, T/C [30]: 17.1%; viability, T/C [31]: 8.06%; viability, T/C [32]: 5.83%; viability, T/C [33]: 20.6%; viability, T/C [34]: 25.9%; viability, T/C [35]: 25.9%

**Q.** What does the source list for `CCNC(=O)CC1N=C(c2ccc(Cl)cc2)c2cc(OC)ccc2-n2c(C)nnc21` (stereo not drawn) + C=CC(=O)N1CCN(c2nc(=O)n(-c3c(C)ccnc3C(C)C)c3nc(-c4c(O)cccc4F)c(F)cc23)C(C)C1?
**A.** IC50 [2]: > 10 µM; IC50 [3]: > 10 µM; IC50 [4]: > 10 µM; IC50 [5]: > 10 µM; IC50 (curve of first compound, second compound 10 µM): > 10 µM; viability, T/C [12]: 107%; viability, T/C [13]: 123%; viability, T/C [14]: 112%; viability, T/C [15]: 102%; viability, T/C [16]: 111%; viability, T/C [17]: 98.6%; viability, T/C [18]: 115%; viability, T/C [19]: 105%; viability, T/C [20]: 106%; viability, T/C [21]: 93.1%; viability, T/C [22]: 103%; viability, T/C [23]: 78.5%; viability, T/C [24]: 107%; viability, T/C [25]: 102%; viability, T/C [26]: 99%; viability, T/C [27]: 108%; viability, T/C [28]: 105%; viability, T/C [29]: 101%; viability, T/C [30]: 98.2%; viability, T/C [31]: 106%; viability, T/C [32]: 105%; viability, T/C [33]: 99.9%; viability, T/C [34]: 88.9%; viability, T/C [35]: 81.3%; viability, T/C (second compound 10 µM, first compound 0.0316 µM): 102%; viability, T/C (second compound 10 µM, first compound 0.1 µM): 105%; viability, T/C (second compound 10 µM, first compound 0.316 µM): 97.7%; viability, T/C (second compound 10 µM, first compound 1 µM): 102%; viability, T/C (second compound 10 µM, first compound 3.16 µM): 91.8%; viability, T/C (second compound 10 µM, first compound 10 µM): 81.9%

**Q.** What does the source list for `CNCc1ccccc1-c1csc(C(C)Nc2nc(C)nc3cc(OC)c(OC)cc23)c1` (stereo not drawn)?
**A.** viability, T/C (compound 10 µM): 0.18% [middle of 14 runs]; IC50 (compound alone, run of 08/26/2021): 2.36 µM [middle of 5 runs]; IC50 (compound alone, run of 09/02/2021): 2.83 µM [middle of 6 runs]
